# Test results published in patent US5589510A, “Method for inhibiting retroviral infection by administering a naphthalenesulfonic acid compound” (priority 1995, dated 1996).
# Experiments:
# [1] = system: TA98, TA1535, TA1537, TA1538, TA100 and W2P2uvr; assay: Ames Test (in the presence of S9); type: cell-based, Salmonella typhimurium
# From the text: Six Salmonella typhimuriumstrai strains, TA98, TA1535, TA1537, TA1538, TA100 and W2P2uvr were used in this experiment.
# [2] = system: HIV-1 patient isolate IH; assay: Inhibition of HIV-1 patient isolate IH in CD4^+ cells; type: cell-based; details: Human immunodeficiency virus 1, 288 h, 10% FCS, read-out: % Inhibition (after day 12)
# Protocol: The inhibitory effects of additional naphthalenesulfonic acid compounds were tested as follows: Experimental Details:
# PBMCs were activated for 48 hours in conditioned medium containing PHA at a concentration of 4 μg/ml. Thereafter 10^6 cells were plated in each of the 24 well plates containing 10% FCS or 50% FCS. The test compound, previously dissolved in a glucose solution (1 mg/ml), was then added to each of the wells to achieve the appropriate concentration. The plate was then incubated overnight (about 15 hours) after which 50 μl of cell-free HIV-1 patient isolate was added to each well. The plates were incubated for further 6 to 8 hours after which all free floating solution of virus was washed off. Washing was performed four times.
# After removal of the virus, all cultures were resuspended in conditioned medium containing 10% FCS.
# For control experiments virus growth was monitored in either 10% FCS or 50% FCS throughout the observation period (15 days).
# [3] = LD50, intravenous, mice; type: in vivo; details: female mice, mortalities within 1 week; for LD50 at 168 h: mouse, in vivo
# Protocol: The test material was administered intravenously to 5 female mice in five increasing doses. Mortalities were recorded within 1 week, and the LD50 was determined with the aid of statistical calculations.
# [4] = system: HIV-1 RF; assay: Antiviral assay, Experimental Protocol I (compound added after infection); type: cell-based; details: Human immunodeficiency virus 1, 240 h, 10% FCS, p24 ELISA, read-out: % Inhibition (after day 10)
# [5] = target: T1, recombinant reverse transcriptase (RT) (Human immunodeficiency virus type 1 group M subtype B, UniProt P04585); assay: Reverse transcriptase inhibition assay; type: biochemical, HIV-1; details: at 0.5 μM
# T1 construct: purchased Worthington Biochemical Corporation
# Protocol: Inhibition of recombinant reverse transcriptase (RT) was performed by using commercially available Boehringer Mannheim RT assay kit (Cat. No. 1468 120) based on incorporation of digoxigenin labeled dUTP into DNA. Recombinant enzyme from HIV-1 was purchased from Worthington Biochemical Corporation. The level of anti-RT activity in the sample was determined by measurement of absorbance using an ELISA reader at 405 nm.
# [6] = system: standard Ames Test; details: literature (K-T. Chung et al); cited from earlier work
# [7] = system: HIV rgp120 / CD4 cells; details: literature (Balzarini et al.); cited from earlier work
# [8] = system: syncytium formation; details: literature (Mohan et al.; Tan et al.; Baba et al.); cited from earlier work
# [9] = system: retroviruses; details: literature (Ito et al.); cited from earlier work
molecule,measurement,setting,value
COc1cc(N=Nc2c(S(=O)(=O)O)cc3cc(S(=O)(=O)O)cc(NC(=O)c4cccc5ccccc45)c3c2O)c(OC)cc1N=Nc1c(S(=O)(=O)O)cc2cc(S(=O)(=O)O)cc(NC(=O)c3ccc(Cl)cc3Cl)c2c1O [Compound 1],Ames Test result,[1],Negative
same,inhibition at 10 µg/mL,[2]; 10 μg/ml,50%
same,inhibition at 20 µg/mL,[2]; 20 μg/ml,100%
same,LD50 at 168 h,[3],150 mg/kg
same,inhibition at 0.6 µg/mL,[4]; 0.6 μg/ml,98%
same,inhibition at 1.25 µg/mL,[4]; 1.25 μg/ml,100%
same,inhibition at 2.5 µg/mL,[4]; 2.5 μg/ml,100%
same,inhibition at 5 µg/mL,[4]; 5 μg/ml,100%
same,inhibition at 0.5 µM,[5],70%
"Cc1cc(-c2ccc(/N=N/c3ccc4c(S(=O)(=O)O)cc(S(=O)(=O)O)c(N)c4c3O)c(C)c2)ccc1/N=N/c1ccc2c(S(=O)(=O)O)cc(S(=O)(=O)O)c(N)c2c1O [Evans Blue, reference compound]",mutagenic effects in Ames Test,[6],strong mutagenic effects
same,Ames Test result,[1],Positive
same,"Ames Test, specific mutagenic activity","[1]; the higher the value, the higher the mutagenicity",10 colony no/μg
same,LD50 at 168 h,[3],100 mg/kg
same,inhibition at 0.5 µM,[5],48%
same,inhibition of interaction of HIV rgp120 with CD4 cells,[7],inhibitor of the interaction of HIV rgp120 with CD4 cells
"CC1=C/C(=C(\c2ccc(N)c(S(=O)(=O)[O-])c2)c2ccc(N)c(S(=O)(=O)O)c2)C=C(S(=O)(=O)[O-])C1=N.[Na+].[Na+] [Fuchsin Acid, reference compound]",inhibition of syncytium formation,[8],inhibitors of syncytium formation
same,LD50,[3]; 10080 min,100 mg/kg
dextran sulfate,anti-retroviral activity,[9],known anti-retroviral compounds
